# Results taken from ChEMBL document CHEMBL1127372, “The discovery and structure-activity relationships of 1,2,3,6-tetrahydro-4-phenyl-1-[(arylcyclohexenyl)alkyl]pyridines. Dopamine autoreceptor agonists and potential antipsychotic agents” (J Med Chem, 1994).
# The source made the active and inactive calls. The calls are words filed in the database; no cut-off is given here.
# What was measured:
# D(2) dopamine receptor [1] = biological target: T1, D(2) dopamine receptor (Rattus norvegicus, UniProt P61169); experiment: In vitro inhibition of [3H]spiperone binding to Dopamine D2 receptor in rat striatum.; type: tissue-based
# Rattus norvegicus [2] = experiment: Tested for the inhibition of locomotor activity in rats orally; value ranges from 0.21-0.3 mg/Kg; settings: po
# Mus musculus [3] = organism: Mus musculus; experiment: animal or person; settings: ip
# [4] = Tested for inhibition of conditioned avoidance in squirrel monkeys; value ranges from 0.4-0.6 mg/Kg; settings: Saimiri
# Mus musculus [5] = experiment: Tested for inhibition of mouse exploratory locomotory activity (LMA); value ranges from 0.8-1.6 mg/Kg; type: functional
# Rattus norvegicus [6] = experiment: Effect on striatal DOPA synthesis at 10 mg/kg dose after GBL intraperitoneal dose of 750 mg/kg in rat corpus striatum; type: functional
# Mus musculus [7] = organism: Mus musculus; experiment: Tested for inhibition of mouse exploratory locomotory activity (LMA); type: functional
# Mus musculus [8] = experiment: Tested for inhibition of mouse exploratory locomotory activity (LMA); value ranges from 9.2-16 mg/Kg; type: functional
# Mus musculus [9] = experiment: Tested for the inhibition of locomotor activity in mice intraperitoneally; value ranges from 0.9-1.8 mg/Kg; type: functional; settings: ip
# Rattus norvegicus [10] = experiment: Tested for reversal of DOPA accumulation in rat striatum after administration of compound at 10 mg/Kg dose for 60 min and GBL 750 mg/Kg ip; value ranges from 2.05-4.46; type: functional
# D(1A) dopamine receptor = D(1A) dopamine receptor (Rattus norvegicus, UniProt P18901); experiment: Tested for binding affinity towards rat striatal dopamine receptor D1 using [3H]-SCH- 23390 as radioligand
# Rattus norvegicus [11] = experiment: Tested for the inhibition of locomotor activity in rats intraperitoneally; value ranges from […]-[…] mg/Kg; type: functional; settings: ip
# D(2) dopamine receptor [12] = biological target: D(2) dopamine receptor (Homo sapiens, UniProt P14416)
# Description: Tested for binding affinity towards human D2L receptor using [3H]spiperone as radioligand
# D(2) dopamine receptor [13] = biological target: T1, D(2) dopamine receptor
# Description: Tested for binding affinity towards rat striatal D2 receptor using [3H]spiperone as radioligand
# Rattus norvegicus [14] = experiment: Tested for reversal of DOPA accumulation in rat mesolimbic after administration of compound at 10 mg/Kg dose for 60 min and GBL 750 mg/Kg ip; value ranges from 0.19-0.47; type: functional
# Rattus norvegicus [15] = experiment: Compound was tested for the decrease of DA neuron firing rate in rats at 2.5 mg/Kg ip dose; type: functional
# Rattus norvegicus [16] = experiment: Tested for inhibition of rat exploratory locomotory activity (LMA); value ranges from […]-[…] mg/Kg; type: functional
# [17] = Tested for inhibition of conditioned avoidance in squirrel monkeys; value ranges from 0.4-0.7 mg/Kg; type: functional
# D(4) dopamine receptor = biological target: T2, D(4) dopamine receptor (Homo sapiens, UniProt P21917); experiment: Tested for binding affinity towards human Dopamine receptor D4.2 using [3H]spiperone as radioligand
# T2 sequence (P21917 whole entry): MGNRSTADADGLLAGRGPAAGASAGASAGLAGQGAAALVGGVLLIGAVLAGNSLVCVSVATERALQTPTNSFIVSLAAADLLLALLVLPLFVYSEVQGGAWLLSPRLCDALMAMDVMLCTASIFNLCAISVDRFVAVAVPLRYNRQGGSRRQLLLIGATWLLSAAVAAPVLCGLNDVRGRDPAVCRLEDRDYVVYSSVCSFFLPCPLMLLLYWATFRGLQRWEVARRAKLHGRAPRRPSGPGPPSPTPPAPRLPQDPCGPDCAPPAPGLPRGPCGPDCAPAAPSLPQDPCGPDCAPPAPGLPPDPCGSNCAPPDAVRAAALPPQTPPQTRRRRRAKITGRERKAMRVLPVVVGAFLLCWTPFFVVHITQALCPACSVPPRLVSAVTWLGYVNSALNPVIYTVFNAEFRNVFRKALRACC
# D(2) dopamine receptor [18] = biological target: T1, D(2) dopamine receptor; experiment: Tested for binding affinity towards rat striatal D2 receptor using [3H]NPA as radioligand
# D(3) dopamine receptor = D(3) dopamine receptor (Homo sapiens, UniProt P35462)
# Description: Tested for binding affinity towards human D3 receptor using [3H]spiperone as radioligand
# Rattus norvegicus [19] = experiment: Tested for inhibition of rat exploratory locomotory activity (LMA); value ranges from 3.2-10.4 mg/Kg; type: functional
# Mus musculus [20] = experiment: Tested for inhibition of mouse explanatory locomotory activity; value ranges from […]-[…] mg/Kg; type: functional
# Rattus norvegicus [21] = experiment: Tested for reversal of DOPA accumulation in rat striatum after administration of compound at 10 mg/Kg dose for 60 min and GBL 750 mg/Kg ip; value ranges from 0.14-0.59; type: functional
# Rattus norvegicus [22] = experiment: Compound was tested for the decrease of DA neuron firing rate in rats at 0.25 mg/Kg ip dose; type: functional; design: scale not given: the % may be the effect or the level left
# [23] = system: Saimiri sciureus (squirrel monkey); experiment: Tested for inhibition of conditioned avoidance in squirrel monkeys; stim indicates stimulation (increase in response rate) at 0.156 and 0.312 mgkg sc
# Rattus norvegicus [24] = organism: Rattus norvegicus; experiment: animal or person; settings: ip
# Mus musculus [25] = experiment: Tested for the inhibition of locomotor activity in mice intraperitoneally; value ranges from 0.14-0.9 mg/Kg; type: functional; settings: ip
# Rattus norvegicus [26] = organism: Rattus norvegicus; experiment: Tested for inhibition of rat exploratory locomotory activity (LMA); type: functional
# Mus musculus [27] = experiment: Tested for inhibition of mouse exploratory locomotory activity (LMA); value ranges from […]-[…] mg/Kg; type: functional
# Rattus norvegicus [28] = experiment: Tested for inhibition of rat exploratory locomotory activity (LMA); value ranges from […]-[…] mg/Kg; value ranges from […]-[…] mg/Kg; type: functional
# Rattus norvegicus [29] = experiment: Tested for inhibition of rat exploratory locomotory activity (LMA); value ranges from 12.5-24.7 mg/Kg; type: functional
# T1 sequence (P61169 whole entry): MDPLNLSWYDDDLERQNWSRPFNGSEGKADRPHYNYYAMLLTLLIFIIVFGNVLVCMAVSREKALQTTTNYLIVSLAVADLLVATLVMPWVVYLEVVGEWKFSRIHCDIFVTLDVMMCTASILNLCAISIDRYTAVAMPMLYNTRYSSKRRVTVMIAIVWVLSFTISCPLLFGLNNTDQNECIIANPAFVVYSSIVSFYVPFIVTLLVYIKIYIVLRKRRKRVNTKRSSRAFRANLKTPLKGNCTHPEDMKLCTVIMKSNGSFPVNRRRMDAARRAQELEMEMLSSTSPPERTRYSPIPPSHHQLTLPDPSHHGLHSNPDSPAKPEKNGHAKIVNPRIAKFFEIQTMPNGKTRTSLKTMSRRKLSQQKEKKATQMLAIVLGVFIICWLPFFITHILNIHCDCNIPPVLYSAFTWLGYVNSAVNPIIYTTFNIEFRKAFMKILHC
# Sequence of D(2) dopamine receptor (Homo sapiens, UniProt P14416) (P14416 whole entry): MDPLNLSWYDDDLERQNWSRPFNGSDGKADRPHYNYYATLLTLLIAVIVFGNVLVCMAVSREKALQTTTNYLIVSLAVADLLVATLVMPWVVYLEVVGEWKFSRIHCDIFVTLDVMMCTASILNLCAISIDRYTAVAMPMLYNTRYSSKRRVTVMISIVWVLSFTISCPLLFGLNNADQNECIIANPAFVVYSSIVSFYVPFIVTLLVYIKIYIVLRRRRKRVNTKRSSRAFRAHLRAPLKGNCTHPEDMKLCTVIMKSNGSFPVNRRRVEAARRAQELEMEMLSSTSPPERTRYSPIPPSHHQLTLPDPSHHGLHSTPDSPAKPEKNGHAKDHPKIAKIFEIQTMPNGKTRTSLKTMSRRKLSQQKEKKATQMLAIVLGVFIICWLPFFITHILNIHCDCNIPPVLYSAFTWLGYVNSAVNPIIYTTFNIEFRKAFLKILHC
# Sequence of D(3) dopamine receptor (P35462 whole entry): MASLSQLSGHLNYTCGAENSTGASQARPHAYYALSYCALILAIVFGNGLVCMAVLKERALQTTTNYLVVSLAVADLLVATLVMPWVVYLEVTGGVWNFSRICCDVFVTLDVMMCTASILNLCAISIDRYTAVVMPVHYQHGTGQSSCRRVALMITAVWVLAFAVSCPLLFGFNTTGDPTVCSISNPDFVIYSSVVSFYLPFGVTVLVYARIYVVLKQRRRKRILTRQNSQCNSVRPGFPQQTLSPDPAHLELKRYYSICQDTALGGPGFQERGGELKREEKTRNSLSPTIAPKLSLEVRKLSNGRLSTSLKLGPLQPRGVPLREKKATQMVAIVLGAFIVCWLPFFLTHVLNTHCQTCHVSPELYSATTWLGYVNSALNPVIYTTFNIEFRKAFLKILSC
# Sequence of D(1A) dopamine receptor (P18901 whole entry): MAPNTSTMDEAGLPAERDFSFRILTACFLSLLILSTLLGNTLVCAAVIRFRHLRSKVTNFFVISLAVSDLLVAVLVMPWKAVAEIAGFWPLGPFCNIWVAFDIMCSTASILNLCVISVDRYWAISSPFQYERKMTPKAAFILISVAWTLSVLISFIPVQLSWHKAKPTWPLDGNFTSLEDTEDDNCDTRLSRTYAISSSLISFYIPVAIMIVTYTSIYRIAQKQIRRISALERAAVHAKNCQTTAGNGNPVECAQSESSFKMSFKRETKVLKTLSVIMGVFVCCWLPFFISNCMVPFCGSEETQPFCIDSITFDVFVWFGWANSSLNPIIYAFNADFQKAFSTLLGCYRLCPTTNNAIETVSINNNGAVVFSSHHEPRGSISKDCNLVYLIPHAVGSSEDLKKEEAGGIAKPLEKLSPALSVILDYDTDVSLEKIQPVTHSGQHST
structure (smiles),measurement,setting,value
FC(F)(F)c1ccc(C2=CCC[C@@H](CN3CC=C(c4ccccc4)CC3)C2)cc1,IC50,D(2) dopamine receptor [1],2550 nM
O=C(CCCN1CCC(O)(c2ccc(Cl)cc2)CC1)c1ccc(F)cc1 [HALOPERIDOL],ED50,Rattus norvegicus [2],0.25 mg/kg
same,ED50,Mus musculus [3],0.3 mg/kg
same,ED50,[4],0.5 mg/kg
C1=C(c2ccccc2)CCN(CC2CCC=C(c3ccccc3)C2)C1 (configuration not stated),ED50,Mus musculus [5],1.1 mg/kg
same,IC50,D(2) dopamine receptor [1],112 nM
same,Effect,Rattus norvegicus [6],-86%
C1=C(c2ccccc2)CCN(C2CCC=C(c3ccccc3)C2)C1 (configuration not stated),ED50,Mus musculus [7],~30 mg/kg
same,IC50,D(2) dopamine receptor [1],9210 nM
C1=C(c2ccccc2)CCC(CN2CC=C(c3ccccc3)CC2)C1 (configuration not stated),ED50,Mus musculus [8],12.1 mg/kg
same,IC50,D(2) dopamine receptor [1],1000 nM
same,Effect,Rattus norvegicus [6],-32%
C1=C(c2ccccc2)CCN(C[C@@H]2CCC=C(c3ccccc3)C2)C1 [CI-1007],ED50,Mus musculus [9],1.3 mg/kg
same,Effect,Rattus norvegicus [10],3%
same,Ki,D(1A) dopamine receptor,> 10000 nM
same,ED50,Rattus norvegicus [11],2.9 mg/kg
same,Ki,D(2) dopamine receptor [12],25.5 nM
same,Ki,D(2) dopamine receptor [13],53 nM
same,Effect,Rattus norvegicus [14],0.3%
same,Activity,Rattus norvegicus [15],99
same,ED50,Rattus norvegicus [16],2.9 mg/kg
same,ED50,[17],0.6 mg/kg
same,Ki,D(4) dopamine receptor,90.9 nM
same,IC50,D(2) dopamine receptor [1],53 nM
same,Ki,D(2) dopamine receptor [18],3.3 nM
same,Ki,D(3) dopamine receptor,16.6 nM
same,Effect,Rattus norvegicus [6],-66%
Cc1ccc(C2=CCC[C@@H](CN3CC=C(c4ccccc4)CC3)C2)cc1,ED50,Rattus norvegicus [19],5.8 mg/kg
same,IC50,D(2) dopamine receptor [1],328 nM
same,Effect,Rattus norvegicus [6],-42%
COc1ccc(C2=CCC[C@@H](CN3CC=C(c4ccccc4)CC3)C2)cc1,IC50,D(2) dopamine receptor [1],100 nM
same,ED50,Mus musculus [20],5.6 mg/kg
same,Effect,Rattus norvegicus [6],-47%
C1=C(c2ccccc2)CC(CN2CC=C(c3cccs3)CC2)CC1 (configuration not stated),IC50,D(2) dopamine receptor [1],170 nM
C1=C(c2ccccc2)CC(CN2CCN(c3ccccc3)CC2)CC1 (configuration not stated),IC50,D(2) dopamine receptor [1],424 nM
same,Effect,Rattus norvegicus [6],-7.5%
CN1CCc2cccc3c2[C@H]1Cc1ccc(O)c(O)c1-3 [APOMORPHINE],ED50,Rattus norvegicus [21],0.28 mg/kg
same,Activity,Rattus norvegicus [22],100%
same,ED50,[23],inactive
same,ED50,Rattus norvegicus [24],0.03 mg/kg
same,ED50,Mus musculus [25],0.36 mg/kg
Clc1ccc(C2=CCC[C@@H](CN3CC=C(c4ccccc4)CC3)C2)cc1,ED50,Rattus norvegicus [26],19.9 mg/kg
C1=C(c2ccccc2)CCN(CC2CCCC=C2c2ccccc2)C1 (configuration not stated),ED50,Mus musculus [7],> 30 mg/kg
same,IC50,D(2) dopamine receptor [1],3940 nM
C1=C(c2ccccc2)CC(CN2CCN(c3ccccn3)CC2)CC1 (configuration not stated),IC50,D(2) dopamine receptor [1],141 nM
same,ED50,Mus musculus [27],0.8 mg/kg
same,Effect,Rattus norvegicus [6],-61%
C1=C(c2ccccc2)CCCC1CN1CC=C(c2ccccc2)CC1 (configuration not stated),IC50,D(2) dopamine receptor [1],420 nM
same,Effect,Rattus norvegicus [6],-34%
C1=C(c2ccccc2)CCN(C[C@H]2CCC=C(c3ccccc3)C2)C1,ED50,Rattus norvegicus [28],3.8 mg/kg
same,IC50,D(2) dopamine receptor [1],113 nM
same,Effect,Rattus norvegicus [6],50%
C1=C(c2ccccc2)CC(CN2CCN(c3ncccn3)CC2)CC1 (configuration not stated),IC50,D(2) dopamine receptor [1],354 nM
C1=C(c2ccccc2)CCN(CCC2CCC=C(c3ccccc3)C2)C1 (configuration not stated),Effect,Rattus norvegicus [6],-49%
Fc1ccc(C2=CCC[C@@H](CN3CC=C(c4ccccc4)CC3)C2)cc1,IC50,D(2) dopamine receptor [1],76 nM
same,Effect,Rattus norvegicus [6],-74%
same,ED50,Rattus norvegicus [29],17.5 mg/kg
